Test results: the supplement of paper PMC10307832

Legend:
Assay in all cases: relative viability (nuclei count vs DMSO), 5 days (fraction); higher = more cells survive
Olaparib + Foretinib = compound: O=C(c1cc(Cc2n[nH]c(=O)c3ccccc23)ccc1F)N1CCN(C(=O)C2CC2)CC1 [Olaparib] + COc1cc2c(Oc3ccc(NC(=O)C4(C(=O)Nc5ccc(F)cc5)CC4)cc3F)ccnc2cc1OCCCN1CCOCC1 [Foretinib] (partner 0.25 µM)
In short: (§1)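 Five library-drug doses in √10 steps were combined with a fixed anchor-drug dose, or a single drug was given alone, by pin tool to lung cancer cell lines in 1536-well plates the day after seeding. Nuclei were stained and counted after 5 days. Relative viability is the nuclei count in treated wells over that in vehicle wells, taken as the median of duplicate plates.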

Carfilzomib + Foretinib = compound: CC(C)C[C@H](NC(=O)[C@H](CCc1ccccc1)NC(=O)CN1CCOCC1)C(=O)N[C@@H](Cc1ccccc1)C(=O)N[C@@H](CC(C)C)C(=O)[C@@]1(C)CO1 [Carfilzomib] + COc1cc2c(Oc3ccc(NC(=O)C4(C(=O)Nc5ccc(F)cc5)CC4)cc3F)ccnc2cc1OCCCN1CCOCC1 [Foretinib] (partner 0.25 µM)
In short: as §1

Carfilzomib + Pemetrexed = compound: CC(C)C[C@H](NC(=O)[C@H](CCc1ccccc1)NC(=O)CN1CCOCC1)C(=O)N[C@@H](Cc1ccccc1)C(=O)N[C@@H](CC(C)C)C(=O)[C@@]1(C)CO1 [Carfilzomib] + Nc1nc2[nH]cc(CCc3ccc(C(=O)N[C@@H](CCC(=O)O)C(=O)O)cc3)c2c(=O)[nH]1 [Pemetrexed] (partner 0.2 µM)
In short: as §1

Carfilzomib + Navitoclax = compound: CC(C)C[C@H](NC(=O)[C@H](CCc1ccccc1)NC(=O)CN1CCOCC1)C(=O)N[C@@H](Cc1ccccc1)C(=O)N[C@@H](CC(C)C)C(=O)[C@@]1(C)CO1 [Carfilzomib] + CC1(C)CCC(c2ccc(Cl)cc2)=C(CN2CCN(c3ccc(C(=O)NS(=O)(=O)c4ccc(N[C@H](CCN5CCOCC5)CSc5ccccc5)c(S(=O)(=O)C(F)(F)F)c4)cc3)CC2)C1 [Navitoclax] (partner 0.5 µM)
In short: as §1

Cell Line | relative viability (Olaparib + Foretinib; first compound 0.08 µM) | relative viability (Olaparib + Foretinib; first compound 0.253 µM) | relative viability (Olaparib + Foretinib; first compound 2.53 µM) | relative viability (Olaparib + Foretinib; first compound 8 µM) | relative viability (Carfilzomib + Foretinib; first compound 0.001 µM) | relative viability (Carfilzomib + Foretinib; first compound 0.003162 µM) | relative viability (Carfilzomib + Foretinib; first compound 0.01 µM) | relative viability (Carfilzomib + Foretinib; first compound 0.03162 µM) | relative viability (Carfilzomib + Foretinib; first compound 0.1 µM) | relative viability (Carfilzomib + Pemetrexed; first compound 0.001 µM) | relative viability (Carfilzomib + Pemetrexed; first compound 0.003162 µM) | relative viability (Carfilzomib + Pemetrexed; first compound 0.01 µM) | relative viability (Carfilzomib + Pemetrexed; first compound 0.03162 µM) | relative viability (Carfilzomib + Pemetrexed; first compound 0.1 µM) | relative viability (Carfilzomib + Navitoclax; first compound 0.001 µM) | relative viability (Carfilzomib + Navitoclax; first compound 0.003162 µM) | relative viability (Carfilzomib + Navitoclax; first compound 0.01 µM) | relative viability (Carfilzomib + Navitoclax; first compound 0.03162 µM) | relative viability (Carfilzomib + Navitoclax; first compound 0.1 µM)
NCI-H1651 | 0.828 | 0.681 | 0.544 | 0.301 | 0.906 | 0.762 | 0.71 | 0.112 | 0.0981 | 0.561 | 0.649 | 0.536 | 0.197 | 0.082 | 1.11 | 1.06 | 0.728 | 0.123 | 0.0777
NCI-H1666 | 0.936 | 0.867 | 0.793 | 0.823 | 0.988 | 0.979 | 1.07 | 0.928 | 0.45 | 0.896 | 0.914 | 0.898 | 0.799 | 0.562 | 1.07 | 0.963 | 1.05 | 0.929 | 0.263
NCI-H1734 | 0.885 | 0.782 | 0.851 | 0.637 | 0.876 | 1.06 | 0.954 | 0.401 | 0.105 | 0.398 | 0.436 | 0.432 | 0.366 | 0.19 | 0.831 | 1.05 | 0.803 | 0.584 | 0.0981
NCI-H1755 | 0.922 | 0.898 | 0.868 | 0.787 | 0.954 | 0.939 | 0.954 | 0.928 | 0.479 | 0.42 | 0.497 | 0.475 | 0.37 | 0.311 | 0.972 | 0.989 | 0.994 | 0.841 | 0.198
NCI-H1915 | 1.06 | 1.02 | 0.717 | 0.604 | 1.09 | 1.09 | 1.05 | 1.04 | 0.203 | 0.559 | 0.516 | 0.578 | 0.59 | 0.0792 | 0.717 | 0.785 | 0.762 | 0.438 | 0.0486
NCI-H1944 | 0.704 | 0.784 | 0.648 | 0.603 | 0.932 | 0.955 | 0.949 | 0.931 | 0.337 | 0.615 | 0.664 | 0.628 | 0.563 | 0.242 | 0.998 | 1.16 | 1.01 | 1.05 | 0.546
NCI-H1975 | 1.04 | 0.929 | 0.98 | 0.908 |  | 0.859 | 0.621 | 0.0974 | 0.104 | 0.281 | 0.31 | 0.224 | 0.123 | 0.115 | 1.05 | 1.23 | 0.416 | 0.213 | 0.144
NCI-H1993 | 0.906 | 0.794 | 1.04 | 0.931 | 0.798 | 0.865 | 0.81 | 0.778 | 0.444 | 0.593 | 0.502 | 0.574 | 0.518 | 0.351 | 0.856 | 0.773 | 1.08 | 0.861 | 0.527
